Assay results published in ChEMBL document CHEMBL4368892, “Isatin and its derivatives: a survey of recent syntheses, reactions, and applications” (Medchemcomm, 2019).

Biological target: Histone deacetylase
Assay: Inhibition of HDAC (unknown origin)
Format: protein assay, Homo sapiens

IC50 [µM] | SMILES
0.97 | O=C(CNC(=S)N/N=C1\C(=O)Nc2ccc(Cl)cc21)NO

Test system: LoVo
Assay: Antiproliferative activity against human LoVo cells by WST-1 assay
Format: functional, cell-based

IC50 [µM] | SMILES
9.91 to 17.9 | Cc1ccc2nc(SCC(=O)N/N=C3\C(=O)Nc4ccc(F)cc43)n(Cc3ccccc3)c(=O)c2c1
9.91 to 17.9 | Cc1ccc2nc(SCC(=O)N/N=C3\C(=O)Nc4ccccc43)n(-c3ccccc3)c(=O)c2c1
9.91 to 17.9 | O=C(CSc1nc2ccccc2c(=O)n1CCc1ccccc1)N/N=C1\C(=O)Nc2ccc(F)cc21
9.91 to 17.9 | Cc1ccc2nc(SCC(=O)N/N=C3\C(=O)Nc4ccc([N+](=O)[O-])cc43)n(-c3ccccc3)c(=O)c2c1
9.91 to 17.9 | O=C(CSc1nc2ccccc2c(=O)n1-c1ccccc1)N/N=C1\C(=O)Nc2ccc([N+](=O)[O-])cc21
9.91 to 17.9 | Cc1ccc2nc(SCC(=O)N/N=C3\C(=O)Nc4ccc(F)cc43)n(-c3ccccc3)c(=O)c2c1
9.91 to 17.9 | O=C(CSc1nc2ccccc2c(=O)n1-c1ccccc1)N/N=C1\C(=O)Nc2ccc(Cl)cc21
9.91 to 17.9 | O=C(CSc1nc2ccccc2c(=O)n1CCc1ccccc1)N/N=C1\C(=O)Nc2ccccc21
9.91 to 17.9 | Cc1ccc2nc(SCC(=O)N/N=C3\C(=O)Nc4ccccc43)n(Cc3ccccc3)c(=O)c2c1
9.91 to 17.9 | O=C(CSc1nc2ccccc2c(=O)n1CCc1ccccc1)N/N=C1\C(=O)Nc2ccc(Cl)cc21
9.91 to 17.9 | O=C(CSc1nc2ccccc2c(=O)n1Cc1ccccc1)N/N=C1\C(=O)Nc2ccc([N+](=O)[O-])cc21
9.91 to 17.9 | Cc1ccc2nc(SCC(=O)N/N=C3\C(=O)Nc4ccc(Cl)cc43)n(-c3ccccc3)c(=O)c2c1
9.91 to 17.9 | Cc1ccc2nc(SCC(=O)N/N=C3\C(=O)Nc4ccc(Cl)cc43)n(Cc3ccccc3)c(=O)c2c1
9.91 to 17.9 | Cc1ccc2nc(SCC(=O)N/N=C3\C(=O)Nc4ccc([N+](=O)[O-])cc43)n(Cc3ccccc3)c(=O)c2c1
